Reference: patent publication US8445509B2, “Fused heterocyclic derivatives and use thereof” (Takeda Pharmaceutical Company Limited, priority 2008, dated 2013)

What was measured:
[1] = test system: Human blood cell cancer cell line MV-4-11; assay: Human blood cell cancer cell line MV-4-11 growth inhibitory test; type: cell-based; conditions: MV4-11, 72 h, culture for 3 days; for inhibition at 1 µM: 1 μM test substance, read-out: inhibitory rate (%) at 1 μM
Description: Human blood cell cancer cell line MV-4-11 (ATCC) was cultured in IMDM (Invitrogen) containing 10% bovine fetal serum in an incubator at 37° C., 5% CO2. MV-4-11 cells were treated with trypsin/EDTA and recovered. The cells were suspended in IMDM containing 10% bovine fetal serum, plated on a 96 well flat bottom plate at a cells density of 30,000 cells/50 μL per well. After culturing overnight, various concentrations of test substance were dissolved in IMDM containing 10% bovine fetal serum and added to each well by 50 μL. After culture for 3 days, a Cell counting kit-8 reagent (DOJINDO LABORATORIES) was added to each well by 10 μL, and reacted in an incubator at 37° C., 5% CO2 for 2-3 hr. After the reaction, the absorbance of each well at 450 nm was measured by a microtiter plate reader. The concentration of a test substance necessary for inhibiting the growth by 50% (IC50 value) was calculated using a cell proliferation rate with addition of the test substance at each concentration and according to the nonlinear regression analysis using GraphPad Prism [Sigmoidal dose response (variable slope)].

[2] = target: T1, c-Met intracellular domain protein (Homo sapiens, UniProt P08581); assay: Hepatocyte growth factor receptor (c-Met) kinase inhibitory activity (AlphaScreen); type: biochemical; conditions: for inhibition at 1 µM: 1 μM test compound, read-out: inhibitory rate (%) at 1 μM
T1 construct: 2.5 ng/ml of c-Met intracellular domain protein (Millipore); purchased Millipore
Description: A test compound dissolved in dimethyl sulfoxide (DMSO) was diluted with a buffer (50 mM Tris-HCl (pH 7.5), 5 mM MgCl2, 5 mM MnCl2, 2 mM dithiothreitol, 0.01% Tween-20). To this compound solution (5 μL) was added a buffer (10 μL) containing 2.5 ng/ml of c-Met intracellular domain protein (Millipore) and 250 ng/mL of biotin labeled polypeptide biotinyl-poly-Glu:Tyr (4:1) (CIS bio International). […] The reaction solution was allowed to stand at 25° C. for 16 hrs, and the wells were counted using a plate reader (Fusion™ (PerkinElmer)). The kinase inhibitory rate (%) of the test compound was calculated by the following formula: Inhibitory rate (%)=(1−(count of test compound−blank)÷(control−blank))×100
(§1) The count of the solution reacted without addition of the compound was used as a “control”, and the count of the solution without the compound and ATP was used as a “blank”.

[3] = target: T2, Tie2 intracellular domain protein (Homo sapiens, UniProt Q02763); assay: TIE2 kinase inhibitory activity (AlphaScreen); type: biochemical
T2 construct: 50 ng/mL of Tie2 intracellular domain protein (Millipore); purchased Millipore
Description: A test compound dissolved in dimethyl sulfoxide (DMSO) was diluted with a buffer (50 mM Tris-HCl (pH 7.5), 5 mM MgCl2, 5 mM MnCl2, 2 mM dithiothreitol, 0.01% Tween-20). A buffer (10 μL) containing 50 ng/mL of Tie2 intracellular domain protein (Millipore) and 250 ng/ml, of biotin labeled polypeptide biotinyl-poly-Glu:Tyr (4:1) (CIS bio International) was added to the compound solution (5 μL). At 5 min from the mixing of the kinase enzyme, the compound and the biotin labeled polypeptide, a buffer (10 μL) containing 5 μM ATP was added, and the mixture was reacted at 25° C. for 10 min. The reaction was quenched by the addition of 25 μL of a stop solution (100 mM EDTA disodium salt, 62.5 mM HEPES buffer (pH 7.4), 250 mM NaCl, 0.1% bovine serum albumin, 10 μg/ml AlphaScreen assay streptavidin donor beads (Streptavidin Donor beads: PerkinElmer), 10 μg/ml, AlphaScreen assay anti-phosphotyrosine recognition antibody PT-66 binding acceptor beads (Anti-phosphotyrosine (PT-66) Acceptor beads: PerkinElmer)). The reaction solution was allowed to stand at 25° C. for 16 hrs, and the […] were counted using a plate reader (Fusion™ (PerkinElmer)). The kinase inhibitory rate (%) of the test compound was calculated by the following formula: Inhibitory rate (%)=(1−(count of test compound−blank)÷(control−blank))×100
as §1

[4] = test system: Human gastric cancer cell line MKN-45; assay: Human gastric cancer cell line MKN-45 growth inhibitory test; type: cell-based; conditions: MKN-45, 72 h, culture for 3 days; for inhibition at 1 µM: 1 μM test substance, read-out: inhibitory rate (%) at 1 μM; for IC50: read-out: IC50 value
Description: Human gastric cancer cell line MKN-45 (RIKEN BioResource Center) was cultured in RPMI1640 (Invitrogen) containing 10% bovine fetal serum in a gas incubator at 37° C., 5% CO2. MKN-45 cells were treated with trypsin/EDTA and recovered. The cells were suspended in RPMI1640 containing 0.3% bovine fetal serum, plated on a 96 well flat bottom plate at a cells density of 3000 cells/50 μL per well. After culturing overnight, various concentrations of test substance were dissolved in RPMI1640 containing 0.3% bovine fetal serum and added to each well by 50 μL. After culture for 3 days, a Cell counting kit-8 reagent (DOJINDO LABORATORIES) was added to each well by 10 μL, and reacted in an incubator at 37° C., 5% CO2 for 2-3 hr. After the reaction, the absorbance of each well at 450 nm was measured by a microtiter plate reader. The concentration of a test substance necessary for inhibiting the growth by 50% (IC50 value) was calculated using a cell proliferation rate with addition of the test substance at each concentration and according to the nonlinear regression analysis using GraphPad Prism [Sigmoidal dose response (variable slope)]. The cell proliferation rate (%) with addition of a test substance at each concentration was calculated by the following formula. As a positive control (100% growth), dimethyl sulfoxide was added instead of a test substance. As a negative control (0% growth), the compound of Reference Example 136 (WO2005/030140, Entry 104), which is a known c-Met inhibitor, was added in large excess (10 μM) instead of a test substance.

T2 sequence (Q02763 770-1124 limits assumed): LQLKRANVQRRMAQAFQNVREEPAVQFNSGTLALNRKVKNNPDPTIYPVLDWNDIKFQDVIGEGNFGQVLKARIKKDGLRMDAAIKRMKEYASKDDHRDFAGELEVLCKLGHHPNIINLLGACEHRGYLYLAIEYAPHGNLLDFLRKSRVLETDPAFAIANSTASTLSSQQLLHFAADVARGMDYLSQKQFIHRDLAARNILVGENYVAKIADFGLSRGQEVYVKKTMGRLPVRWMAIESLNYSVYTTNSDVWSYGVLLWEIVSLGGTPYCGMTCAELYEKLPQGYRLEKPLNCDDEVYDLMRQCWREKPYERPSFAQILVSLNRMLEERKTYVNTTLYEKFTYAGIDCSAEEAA
T1 sequence (P08581 956-1390 limits assumed): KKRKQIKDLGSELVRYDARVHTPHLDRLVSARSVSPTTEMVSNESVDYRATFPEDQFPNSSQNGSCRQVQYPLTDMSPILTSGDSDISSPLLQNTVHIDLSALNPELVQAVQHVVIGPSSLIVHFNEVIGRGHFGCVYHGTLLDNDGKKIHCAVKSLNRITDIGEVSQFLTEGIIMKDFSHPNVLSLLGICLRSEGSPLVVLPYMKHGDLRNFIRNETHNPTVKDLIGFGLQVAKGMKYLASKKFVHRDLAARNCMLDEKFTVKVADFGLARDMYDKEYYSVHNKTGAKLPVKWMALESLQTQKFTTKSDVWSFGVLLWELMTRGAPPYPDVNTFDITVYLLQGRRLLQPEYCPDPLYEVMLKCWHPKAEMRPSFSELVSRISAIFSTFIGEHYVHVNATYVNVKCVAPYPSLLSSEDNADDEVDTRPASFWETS

SMILES	IC50 [1] [nM]	IC50 [2] [nM]	inhibition at 1 µM [2] [%]	IC50 [3] [nM]	IC50 [4] [nM]	inhibition at 1 µM ([3]; 1 μM test compound, read-out: inhibitory rate (%) at 1 μM) [%]	inhibition at 1 µM [1] [%]	inhibition at 1 µM [4] [%]
O=C(Nc1ccc(Oc2ccc3nc(NC(=O)C4CC4)cn3c2)c(F)c1)c1cccn(-c2ccc(F)cc2)c1=O [Example 10, N-[4-({2-[(cyclopropylcarbonyl)amino]imidazo[1,2-a]pyridin-6-yl}oxy)-3-fluorophenyl]-1-(4-fluorophenyl)-2-oxo-1,2-dihydropyridine-3-carboxamide]	≤ 1000	≤ 1000	≥ 80	≤ 1000	≤ 1000	–	≥ 90	≥ 80
Cc1cc(C)n(-c2ccc(F)cc2)c(=O)c1C(=O)Nc1ccc(Oc2ccc3nc(NC(=O)C4CC4)cn3c2)c(F)c1 [Example 82, N-[4-({2-[(cyclopropylcarbonyl)amino]imidazo[1,2-a]pyridin-6-yl}oxy)-3-fluorophenyl]-1-(4-fluorophenyl)-4,6-dimethyl-2-oxo-1,2-dihydropyridine-3-carboxamide]	≤ 1000	≤ 1000	≥ 80	≤ 1000	≤ 1000	–	≥ 90	≥ 80
Cc1ccc(C(=O)Nc2ccc(Oc3ccc4nc(NC(=O)C5CC5)cn4c3)c(Cl)c2)c(=O)n1-c1ccc(F)cc1 [Example 57, N-[3-chloro-4-({2-[(cyclopropylcarbonyl)amino]imidazo[1,2-a]pyridin-6-yl}oxy)phenyl]-1-(4-fluorophenyl)-6-methyl-2-oxo-1,2-dihydropyridine-3-carboxamide]	≤ 1000	≤ 1000	≥ 80	≤ 1000	≤ 1000	–	≥ 90	≥ 80
CC1CCN(C(=O)Nc2ccc(Oc3ccc4nc(NC(=O)C5CC5)cn4c3)c(F)c2)C(=O)N1c1ccc(F)cc1 (centres unmarked) [Example 80, N-[4-({2-[(cyclopropylcarbonyl)amino]imidazo[1,2-a]pyridin-6-yl}oxy)-3-fluorophenyl]-3-(4-fluorophenyl)-4-methyl-2-oxotetrahydropyrimidine-1(2H)-carboxamide]	≤ 1000	≤ 1000	≥ 80	≤ 1000	≤ 1000	–	≥ 90	≥ 80
Cc1ccc(C(=O)Nc2ccc(Oc3ccc4nc(NC(=O)C5CC5)cn4c3)c(F)c2)c(=O)n1-c1ccc(F)cc1.Cl [Example 32, N-[4-({2-[(cyclopropylcarbonyl)amino]imidazo[1,2-a]pyridin-6-yl}oxy)-3-fluorophenyl]-1-(4-fluorophenyl)-6-methyl-2-oxo-1,2-dihydropyridine-3-carboxamide hydrochloride]	≤ 1000	≤ 1000	≥ 80	–	≤ 1000	–	≥ 90	≥ 80

More lines, main results first:

IC50 [1] [nM]	IC50 [2] [nM]	inhibition at 1 µM [2] [%]	IC50 [3] [nM]	IC50 [4] [nM]	inhibition at 1 µM ([3]; 1 μM test compound, read-out: inhibitory rate (%) at 1 μM) [%]	SMILES	inhibition at 1 µM [1] [%]	inhibition at 1 µM [4] [%]
≤ 1000	≤ 1000	≥ 80	≤ 1000	≤ 1000	–	CC1=C(c2ccc(F)cc2)C(=O)N(C(=O)Nc2ccc(Oc3ccc4nc(NC(=O)C5CC5)cn4c3)c(F)c2)CC1 [Example 81, N-[4-({2-[(cyclopropylcarbonyl)amino]imidazo[1,2-a]pyridin-6-yl}oxy)-3-fluorophenyl]-5-(4-fluorophenyl)-4-methyl-6-oxo-3,6-dihydropyridine-1(2H)-carboxamide]	≥ 90	≥ 80
≤ 1000	≤ 1000	≥ 80	≤ 1000	≤ 1000	–	Cc1ccc(C(=O)Nc2ccc(Oc3ccn4nc(NC(=O)C5CC5)nc4c3)c(F)c2)c(=O)n1-c1ccc(F)cc1 [Example 76, N-[4-({2-[(cyclopropylcarbonyl)amino][1,2,4]triazolo[1,5-a]pyridine-7-yl}oxy)-3-fluorophenyl]-1-(4-fluorophenyl)-6-methyl-2-oxo-1,2-dihydropyridine-3-carboxamide]	≥ 90	≥ 80
≤ 1000	≤ 1000	≥ 80	≤ 1000	≤ 1000	–	Cc1ccc(C(=O)Nc2ccc(Oc3ccc4nc(NC(=O)C5CC5)cn4c3)cn2)c(=O)n1-c1ccc(F)cc1 [Example 60, N-[5-({2-[(cyclopropylcarbonyl)amino]imidazo[1,2-a]pyridin-6-yl}oxy)pyridin-2-yl]-1-(4-fluorophenyl)-6-methyl-2-oxo-1,2-dihydropyridine-3-carboxamide]	≥ 90	≥ 80
≤ 1000	≤ 1000	≥ 80	≤ 1000	≤ 1000	–	Cc1c(C(=O)Nc2ccc(Oc3ccc4nc(NC(=O)C5CC5)cn4c3)c(F)c2)c(=O)n(-c2ccccc2)n1C [Example 46, N-[4-({2-[(cyclopropylcarbonyl)amino]imidazo[1,2-a]pyridin-6-yl}oxy)-3-fluorophenyl]-1,5-dimethyl-3-oxo-2-phenyl-2,3-dihydro-1H-pyrazole-4-carboxamide]	≥ 90	≥ 80
≤ 1000	≤ 1000	≥ 80	≤ 1000	≤ 1000	–	Cc1cc(C(=O)Nc2ccc(Oc3ccc4nc(NC(=O)C5CC5)cn4c3)c(F)c2)c(=O)n(-c2ccc(F)cc2)c1 [Example 66, N-[4-({2-[(cyclopropylcarbonyl)amino]imidazo[1,2-a]pyridin-6-yl}oxy)-3-fluorophenyl]-1-(4-fluorophenyl)-5-methyl-2-oxo-1,2-dihydropyridine-3-carboxamide]	≥ 90	≥ 80
≤ 1000	≤ 1000	≥ 80	≤ 1000	≤ 1000	≥ 50	O=C(Nc1cn2cc(Oc3ccc(NC(=O)N4CCN(c5ccc(F)cc5)C4=O)cc3F)ccc2n1)C1CC1 [Example 53, N-[4-({2-[(cyclopropylcarbonyl)amino]imidazo[1,2-a]pyridin-6-yl}oxy)-3-sfluorophenyl]-3-(4-fluorophenyl)-2-oxoimidazolidine-1-carboxamide]	≥ 90	≥ 80
